# From patent publication US8647887B2, “Measuring G protein coupled receptor activation” (Commonwealth Scientific and Industrial Research Organisation, priority 2009, dated 2014)
# Where “and” joins values, the source holds several entries; their conditions need not be identical. Equal values may be shown once.
# Experiments:
# ODR-10 receptor (OGOR) = assay: cell-free BRET^2 assay with dual-labelled ODR-10 (OGOR) in yeast membrane preparations; assay type: biochemical, C. elegans
# Protocol: Cells were harvested by centrifugation at 1500×g (4° C.) for 5 minutes, washed in water and resuspended in 4 mL of Dulbecco's phosphate buffered saline (D-PBS) or 1×PBS, containing 1000 mg/L glucose, 36 mg/L sodium pyruvate, calcium and magnesium (Invitrogen). The cells were lysed by French press (˜18000 psi) and the soluble protein fractions were isolated by centrifugation at 9300×g (4° C.) for 15 minutes. Following this the soluble protein fraction was transferred to 13.15 mL polycarbonate thick wall centrifuge tubes and ultracentrifuged at 40,000 rpm (Beckman Coulter L-80 ultra-centrifuge) for 1 hour at 4° C. The supernatant was decanted and the membrane pellet resuspended in 1 mL of D-PBD or 1×PBS, and left overnight at 4° C. to solubilise.
# Simultaneous dual emission RET measurements were carried out with a POLARstar OPTIMA microplate reader (BMG LabTech). Simultaneous emission measurements used a BRET^2 filter set (410-80/515-30) with the set respective gains for each channel (3300/4095).
# To assess the relative concentrations of BRET^2 tagged receptor samples the fluorescence intensity of the sample was determined from spectral scans and the sample amount normalized by the OGOR fluorescence intensity. To convert GFP^2 intensity into concentration purified GFP^2 protein was assayed at different concentrations to produce a calibration graph relating concentration to fluorescence intensity. […] Rearranging the line of best fit equation (y=271x+233.31) results in conversion of fluorescence intensity to concentration. […]
# RET analysis was carried out in 96-well plates (Perkin-Elmer) and involved incubating the specified dual tagged receptor protein (OGOR) for 45 minutes with 1 μM of each particular odorant. […] A background signal was recorded by assaying a sample of D-PBS (or 1×PBS). […]
# For BRET measurements Clz400a substrate (5 μM) was added following the 45 minute incubation time and the signal recorded using a 0.50s integration time over a 5 second period. Following addition of Clz400a the well was re-sealed while the signal was recorded to reduce cross-contamination of samples. […]
# OGOR mutant (H110Y) = assay: cell-free BRET^2 assay with OGOR mutant (H110Y), negative control; assay type: biochemical, C. elegans; details: μM concentrations of diacetyl
# Protocol: Site-directed mutagensis was carried out with OGOR in pDONR201 vector (see above) as the double stranded template. The histidine 110 to tyrosine (H110Y) mutation was performed using the Stratagene Quickchange site directed mutagenesis kit according to standard protocols using the following primers; 5′-[…]-3′ (WT) (SEQ ID NO:43) and 5′-[…] GTG-3′ (H110Y antisense) (SEQ ID NO:44).
# PCR was performed with Pfx50™ standard ingredients (Invitrogen) and conditions were as follows 94° C. 2 mins, 16 cycles of 94° C. 30 secs, 55° C. 1 minute, 68° C. 6.8 minutes. Following sequencing the OGOR mutant was then subcloned into pYES-DEST52 (Invitrogen) using Gateway® technology (5′ and 3′ attB sites were included in original OGOR sequence) for subsequent expression in S. cerevisiae.
# RET analysis was carried out in 96-well plates (Perkin-Elmer) and involved incubating the specified dual tagged receptor protein (OGOR) for 45 minutes with 1 μM of each particular odorant. The final volume was 100 μL and included 10 μL of odorant, receptor protein sample (see ‘Normalization of sample concentration’ section), D-PBS (or 1×PBS) and 5 μL of Clz400a (5 μM). A background signal was recorded by assaying a sample of D-PBS (or 1×PBS). During the incubation time the 96-well plate wells were sealed with Topseal™—A (Packard) with each sample area individually sealed. […]
# ODR-10 receptor (OCOY) = assay: cell-free FRET assay with dual-labelled ODR-10 (OCOY); assay type: biochemical, C. elegans; details: μM concentrations of diacetyl
# Protocol: All spectral scans were recorded with a plate-reading SpectraMax M2 spectrofluorimeter (Molecular Devices). 100 μL aliquots of membrane preparations sample were scanned using 96-well plates (Perkin-Elmer). Fluorescence spectral scans recorded from 450 to 600 nm with an excitation wavelength of 420 nm using a 455 nm emission cut-off filter.
# To compare the sensitivity of the BRET^2 system to the FRET system for monitoring GPCR activation the BRET^2 components used to tag the ODR-10 receptor (OGOR) were replaced with FRET components resulting in the insertion of CFP into the 3rd intracellular loop and YFP at the C-terminus (OCOY). The CFP (mCFP) (SEQ ID NO:45) and YFP (mCitrine) (SEQ ID NO:46) derivatives were both monomeric and codon optimized (EUROSCARF) for yeast expression (SEQ ID NOs 47 and 48 respectively).
# The OCOY sequence flanked by KpnI and XhoI restriction sites was synthesised by Genscript. The OCOY sequence was inserted into the KpnI and XhoI sites of the pENTR11 vector. These were then recombined into pYES-DEST52 (Invitrogen) using Gateway® technology for subsequent expression in S. cerevisiae. […]
# To assess the relative concentrations of dual-tagged receptor samples the fluorescence intensity of the sample was determined from spectral scans and the sample amount normalized by the OCOY fluorescence intensity. […]
# whole-cell BRET^2 assay = assay type: cell-based; details: 1 μM, 45 minutes incubation, P≦0.05
# Protocol: FIG. 16. BRET^2 signal upon incubation (45 minutes) with 1 μM of diacetyl (mean±S.D., n=3) monitored using a whole-cell and cell-free assay systems.
# [1] = tested on: ODR-10 expressing HEK 293 cells; details: cited from earlier work
# PTHR = molecular target: T1, PTHR (Homo sapiens, UniProt Q03431); details: 1 μM; cited from earlier work
# T1 sequence (Q03431 27-593): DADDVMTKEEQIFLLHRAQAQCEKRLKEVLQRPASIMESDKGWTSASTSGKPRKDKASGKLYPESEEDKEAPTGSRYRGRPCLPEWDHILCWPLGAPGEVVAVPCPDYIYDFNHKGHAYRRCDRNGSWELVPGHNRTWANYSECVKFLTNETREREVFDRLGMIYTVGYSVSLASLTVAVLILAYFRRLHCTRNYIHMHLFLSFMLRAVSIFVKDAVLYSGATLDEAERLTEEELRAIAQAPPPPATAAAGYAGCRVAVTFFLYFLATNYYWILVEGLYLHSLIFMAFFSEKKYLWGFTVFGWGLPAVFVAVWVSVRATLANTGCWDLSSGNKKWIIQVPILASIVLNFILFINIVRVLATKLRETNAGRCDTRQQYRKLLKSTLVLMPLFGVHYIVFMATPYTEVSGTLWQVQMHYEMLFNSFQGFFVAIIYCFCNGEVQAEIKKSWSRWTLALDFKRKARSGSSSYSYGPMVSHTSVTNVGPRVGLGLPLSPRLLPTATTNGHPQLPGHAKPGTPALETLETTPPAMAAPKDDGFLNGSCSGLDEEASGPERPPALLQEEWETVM
# Str112 receptor (TGTR) = assay: cell-free BRET^2 assay with dual-tagged Str112 (TGTR); assay type: biochemical, C. elegans; details: 1 μM ligand, 10 nM TGTR; for BRET^2 signal compared to the response of TGTR to water, significance: P≦0.05
# Text: The TGTR sequence flanked by NcoI and NotI restriction sites was synthesised by Genscript. The TGTR sequence was inserted into the NcoI and NotI sites of the pENTR11 vector. These were then recombined into pYES-DEST52 (Invitrogen) using Gateway® technology for subsequent expression in S. cerevisiae.
# The same expression protocol was used for the expression of TGTR in InVSC1 as for OGOR expression. The TGTR coding sequence is provided as SEQ ID NO:51, whereas the amino acid sequence is provided as SEQ ID NO:52.
# The same RET analysis protocol as described for the OGOR selectivity studies. 1 μM of the ligands pyruvic acid, citric acid, ethyl acetate, acetoin and diacteyl was assayed with 10 nM of TGTR
# The bacterial strain OP50 was grown in LB overnight at 37° C. with shaking (200 rpm). E. coli strain OP50 is usually used as a food source for nematode growth in the laboratory (Brenner, 1974). Two assays were performed using the OP50 bacterial culture. The first assay was the addition of 10 μL of the bacterial culture or 10 μL of LB to 10 nM TGTR. The second assay required that 1 mL of the bacterial culture was placed in a microcentrifuge tube and centrifuged at 10000×g for 1 minute. 10 μL of the supernatant, following decanting into a fresh microcentrifuge tube, or 10 μL of LB was added to 10 nM TGTR. Following bacterial sample addition the same protocol was followed as for the OGOR RET analysis.
# α2A receptor = molecular target: T2, α2A receptor (Mus musculus, UniProt Q01338); details: 10 nM; cited from earlier work
# T2 sequence (Q01338 1-465): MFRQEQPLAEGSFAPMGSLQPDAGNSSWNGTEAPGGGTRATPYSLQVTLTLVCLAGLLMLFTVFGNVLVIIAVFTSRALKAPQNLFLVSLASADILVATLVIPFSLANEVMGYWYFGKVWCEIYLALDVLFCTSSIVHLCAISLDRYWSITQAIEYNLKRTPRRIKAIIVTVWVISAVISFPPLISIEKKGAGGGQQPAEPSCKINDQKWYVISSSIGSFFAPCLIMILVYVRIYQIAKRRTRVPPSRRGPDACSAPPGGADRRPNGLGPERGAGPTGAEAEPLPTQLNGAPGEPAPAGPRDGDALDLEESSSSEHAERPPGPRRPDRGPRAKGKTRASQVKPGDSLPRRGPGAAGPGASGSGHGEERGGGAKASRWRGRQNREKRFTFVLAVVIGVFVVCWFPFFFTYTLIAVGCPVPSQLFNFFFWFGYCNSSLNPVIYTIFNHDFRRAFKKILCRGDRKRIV
compound,measurement,setting,value
CC(=O)C(C)=O [diacetyl],"decrease in the BRET^2 signal, cell-free assay system","ODR-10 receptor (OGOR); 1 μM, 45 minutes incubation, Example 7, P≦0.05",52%
same,change in BRET^2 signal compared to the solvent (water) response,"ODR-10 receptor (OGOR); OGOR, μM concentrations (1 μM) of ligand, 45 minutes incubation, decrease in signal",37.5% and 32.4%
same,EC50 expressed as parts per quadrillion,ODR-10 receptor (OGOR); equivalent of the fM EC50,0.31 ppq
same,BRET^2 response to diacetyl,OGOR mutant (H110Y),4.1%
same,"response versus solvent (water) response, significance",OGOR mutant (H110Y),not significantly different
same,reduction in FRET ratio (intensity at 520 nm/intensity at 480 nm),ODR-10 receptor (OCOY),7.6%
same,"response versus solvent (water) response, significance",ODR-10 receptor (OCOY),significantly different
same,"change in the BRET^2 signal, whole cell assay",whole-cell BRET^2 assay,no significant change
same,Ca^2+ elevation response,[1]; ODR-10 expressing HEK 293 cells,the only volatile compound to produce a Ca^2+ elevation response
same,apparent affinity (EC50) as part per million,"[1]; expressed in human cells, calcium imaging",~0.2 ppm
same,EC50,"[1]; expressed in human cells, calcium imaging, read-out: apparent affinity (EC50) of ODR-10 for diacetyl",2300 nM
"PTH: parathyroid hormone, agonist of PTHR, literature value",change in the FRET signal upon binding,PTHR,~20%
CC(=O)C(C)O (stereo not shown) [acetoin],increase in the BRET^2 signal,Str112 receptor (TGTR),20.8%
same,"BRET^2 signal compared to the response of TGTR to water, significance",Str112 receptor (TGTR),significantly higher
CC(=O)C(=O)O [pyruvic acid],"BRET^2 signal compared to the response of TGTR to water, significance",Str112 receptor (TGTR),significantly higher
NC[C@H](O)c1ccc(O)c(O)c1 [norepinephrine],change in the FRET signal upon binding,α2A receptor,~5%
